Patent US8324166B2, “Neuroprotection using NAP-like and SAL-like peptide mimetics” (Ramot at Tel-Aviv University, Ltd., priority 2007, dated 2012)
Several values for one entry are separate records, joined by “and”; a condition that tells them apart may be missing. Equal values may be shown once. Entries after “also recorded” stand apart in the source; their conditions may differ.

Tests used:
[1] = tested on: rTg(tauP301L)4510 mouse (Tau-Tg); experiment: Morris water maze in Tau transgenic mice; type: in vivo; settings: Tau-Tg female mice, intranasal NAT 2 μg/5 μl/mouse/day; p=0.039
Experimental: The mouse model, used in the current study, was previously described (Ramsden et al., (2005) J Neurosci, 25, 10637-10647). The rTg(tauP301L)4510 mouse (designated as Tau-Tg below) expresses the human 4-repeat Tau with the P301L mutation (4RON) associated with frontotemporal dementia and Parkinsonism linked to chromosome 17.
(§1) The experiment included three groups: Tau-Tg female mice, 10-month-old, treated by intranasal administration of NAT 2 μg/5 μl/mouse/day (n=5) or vehicle (SW/mouse/day) (n=6), and as control, non-Tg female littermates treated by vehicle (SW/mouse/day) (n=7).
NAT was dissolved in a vehicle solution, in which each milliliter include 7.5 mg of NaCl, 1.7 mg of citric acid monohydrate, 3 mg of disodium phosphate dehydrate, and 0.2 mg of benzalkonium chloride solution (50%). 5 μl of NAT or vehicle solution (DD) were administered intranasally.
(§2) Treatment started at 9 months of age and continued daily for a period of 5 weeks. At each test NAT was applied 1 h before the test begun.
Each mouse was placed in a pool of water that is colored opaque with powdered non-fat milk, where it must swim to a hidden escape platform. […]
Experimental procedure: Mice were treated with NAT or vehicle and then habituated for 1 hour in the experiment room. […] The time required for reaching the platform in each trial and the path lengths were measured. […]

[2] = tested on: ADNP; experiment: Nuclear ADNP level in cerebral cortex by immunoblotting; type: in vivo, mouse; settings: NAT vs vehicle treated TAU-Tg, p=0.0028, listed as NAT
Experimental: as §1
Mouse brain tissue was rapidly dissected and quickly separated into four different brain sections: cortex, hippocampus, cerebellum and rest of the brain. Brains were kept frozen at −80° C. for further biochemical analysis. Total levels of nuclear ADNP were analyzed by immunoblotting. Cerebral cortex samples (˜50 mg each) were homogenized and cytoplasmic and nucleus proteins were separated using lysis buffer (20 mM TRIS HCl pH […], 0.1 mM EDTA, 1.5 mM MgCl2, 0.2% NP-40) and extraction buffer (10 mM TRIS HCl pH 7.7, 0.1 mM EDTA, 1.5 mM MgCl2, 20% Glycerol, 1.61 gr NaCl). Protein amount was estimated and corrected by using the Bradford assay and then separated by electrophoresis on 12% polyacrylamide gels containing SDS (Shiryaev et al., (2009) Neurobiol Dis, 34, 381-388). Western blot analyses were performed by applying brain protein samples onto two gels. Each gel had sample representation from each one of the three groups. […] Protein bands on hyperfilm were quantified using photochromatography analysis. The ADNP amount in each band was calculated as its percentage from the total amount of all bands. […]

[3] = tested on: neurons in mixed neuroglial cultures intoxicated with beta-amyloid 1-42; experiment: MAP2 assay: neuronal survival in mixed neuroglial cultures following beta-amyloid intoxication; type: cell-based, rat
Experimental: Newborn rats were used to prepare cerebral cortical astrocytes cell cultures as described above. After suspending the cells in D1, they were centrifuged at 100 g for 5 minutes and the supernatant discarded. The cell pellet was resuspended in solution D2 containing 5% heat inactivated horse serum (Biological Industries, Beit Haemek, Israel), 0.1% gentamycin, 0.1% penicillin-streptomycin-nystatin, 1% N3 (defined medium components essential for neuronal development in culture, (Romijn HJ, Brain Res., 254:583-9 (1981)]), 15 μg/ml 5′-fluoro-2-deoxyuridine (FUDR, Sigma, Rehovot, Israel), and 3 μg/ml uridine (Sigma, Rehovot, Israel) in DMEM. Cells were counted in a hemocytometer, diluted in D2 and 17,000 cells/well/96 well plate were seeded on 8-day-old astrocytes prepared as described above. The medium was changed the next day to D2 without FUDR and uridine. Cells were allowed to grow for one week at 37° C. 10% CO2 before experiments were performed.
Neuronal survival in neuroglial cultures following beta-amyloid intoxication was assayed using the neuron specific antibody, MAP2. […] The cells were incubated for 5 days in 10% CO2 at 37°C.
5 days after the addition of beta-amyloid and the peptide, the cells were fixed by removing the media from each well and the addition of cold methanol. The cells were left in the refrigerator overnight. The cells were immunostained with anti-MAP2 as previously described (Brooke S M et al., Neurosci. Lett., 267:21-4(1999)): the methanol was removed and the cells were washed 4 times with phosphate buffered saline (PBS). Blocking for non-specific antibody binding was performed by incubating the cells in 5% non-fat milk in PBS overnight at 4° C. The blocking solution was then removed and anti-MAP2(1:1000; Sigma, Rehovot, Israel) was added to each well. The cells were incubated for 30 minutes at room temperature, followed by 4 washes with PBS. Biotinylated anti-mouse IgG (1:200, Vector Laboratories, Burlingame, Calif., USA) was then added to each well, and the cells were incubated for 30 minutes at room temperature followed by 4 washes with PBS. The cells were incubated at room temperature for 30 minutes with the ABC reagent (Vector Laboratories, Burlingame, Calif., USA) prepared according to the manufacturer's protocol and then washed 4 times with PBS. ABTS reagent, prepared according to the manufacturer's protocol (Vector Laboratories, Burlingame, Calif., USA) was then added to each well and the cells were incubated for 20 minutes in the dark at room temperature. The plates were read in an ELISA plate reader at 405nm. As blanks, wells containing untreated cells and no primary antibody were used.

[4] = tested on: rTg(tauP301L)4510 mouse (Tau-Tg); experiment: Brain-Body weight ratio in Tau transgenic mice; type: in vivo
Experimental: as §1, §2
All mice were weighed at the beginning and end of the experiment and whole brain weight was measured before the brain dissection.
All mice were weighed before first drug application and again before the dissection (while still alive). […] Whole brain was weighed before the brain sections were separated and no significant statistical differences between the groups were found. However, Brain-Body weight ratio may be used to measure brain mass decrease possibly indicating neuronal degradation (Bassan et al., (2009) J Matern Fetal Neonatal Med, 1-6).

NATLSIHQ (synthetic NAP-like peptide)
improvement in learning: latency to find the hidden platform, first day vs fifth day, second daily trial [1]: Significant improvement
amount of nuclear ADNP protein [2]: difference between the NAT and vehicle treated TAU-Tg groups; also recorded: statistically significant increase
effective concentrations on neuronal survival: Neurons (25 μM beta-amyloid) ([3]; MAP2 assay, 5 days, tested 10^−19M to 10^−5M, significance vs negative control in cell): 10^−19 M and 10^−15 M and 10^−17 M and 10^−13 M
activity in neuroprotection assay ([3]; neuroglial cells, beta-amyloid): active
efficacy compared between peptides ([3]; survival of neuroglial cells): greater than that of STPTAIPQ
protection from neurodegeneration (Brain-Body weight ratio) ([4]; TAU-Tg mice, intranasal NAT, listed as NAT): protected the brain from neurodegeneration; also recorded: protective effect
Brain-Body weight ratio ([4]; TAU-Tg+NAT, intranasal daily 5 weeks, mean and S.E., p=0.030 vs vehicle treated TAU-Tg): 0.0148+0.0009
